Test results reported in publication PMC2952445 (The journal of pain : official journal of the American Pain …, 2009).

Target: mu opioid peptide (MOP) receptor (mouse brain) (Mus musculus, UniProt P42866)
Sequence (P42866 whole entry): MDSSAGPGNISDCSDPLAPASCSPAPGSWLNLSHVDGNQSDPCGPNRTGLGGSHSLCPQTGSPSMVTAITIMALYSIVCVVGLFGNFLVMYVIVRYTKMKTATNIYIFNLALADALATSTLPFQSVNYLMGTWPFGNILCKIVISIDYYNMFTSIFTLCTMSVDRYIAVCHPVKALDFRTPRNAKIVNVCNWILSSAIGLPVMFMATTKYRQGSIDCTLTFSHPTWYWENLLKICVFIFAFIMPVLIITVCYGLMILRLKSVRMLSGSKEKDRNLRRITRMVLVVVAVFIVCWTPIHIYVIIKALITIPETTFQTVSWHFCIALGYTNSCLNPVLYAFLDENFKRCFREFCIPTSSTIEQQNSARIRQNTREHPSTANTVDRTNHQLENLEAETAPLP

## CCC(=O)C(CC(C)N(C)C)(c1ccccc1)c1ccccc1 (stereo not shown) [methadone]
  IC50: 0.0117 ± 0.0012 µM
